Legend:
[1] = Extraction of ethanol from an aqueous solution by ionic liquid (HPLC); assay type: physicochemical; details: 3 mL aqueous solution about 31 g/L ethanol, 5 vol % ionic liquid, overnight equilibration, control 655
Protocol: (§1) Ethanol and isobutanol concentration in the solution was measured using HPLC as described above following thorough mixing and overnight equilibration of the contents of the vial.

[2] = tested on: Saccharomyces cerevisiae (W1362 20A); test: Glucose Uptake Index (GUI) of Saccharomyces cerevisiae culture in the presence of ionic liquid; assay type: cell-based; details: 5% (v/v) ionic liquid, YPD medium, 30° C., 16 hours after addition; GUI of control without ionic liquid 79.0 (Ex. 1-5) or 100 (Ex. 6-8)
[3] = Extraction of isobutanol from an aqueous solution by ionic liquid (HPLC); assay type: physicochemical; details: 3 mL aqueous solution about 31 g/L isobutanol, 5 vol % ionic liquid, overnight equilibration, control 436
Protocol: as §1

Row | SMILES | mM Ethanol (in solution after equilibration) ([1]; listed as [MeDMEEAP] [HFPS]) [mM] | GUI of Sample (Glucose Utilization Index in the presence of ionic liquid phase) [2] | mM isobutanol (in solution after equilibration) ([3]; listed as [MeDMEEAP] [HFPS]) [mM] | mM Ethanol (in solution after equilibration) ([1]; listed as [MeDMEEAP] [Tf2N]) [mM] | mM isobutanol (in solution after equilibration) ([3]; listed as [MeDMEEAP] [Tf2N]) [mM] | mM Ethanol (in solution after equilibration) [1] [mM] | mM isobutanol (in solution after equilibration) [3] [mM]
1 | CCOCC[N+](C)(C)CCN1C(=O)CCC1C (stereo not shown) [Example 2, 1-(N,N,N-dimethyl(ethylethoxy)aminoethyl)-5-methyl-pyrrolidine-2-one hexafluoropropanesulfonate] | 656 | 34.0 | 422 |  |  |  | 
2 | CCOCC[N+](C)(C)CCN1C(=O)CCC1C (stereo not shown) [Example 3, 1-(N,N,N-dimethyl(ethylethoxy)aminoethyl)-5-methyl-pyrrolidine-2-one bis(trifluoromethane)sulfonamide] |  | 80.4 |  | 637 | 398 |  | 
3 | COCC[N+](C)(C)CCN1C(=O)CCC1C (stereo not shown) [Example 4, 1-(N,N,N-dimethyl(methylethoxy)aminoethyl)-5-methylpyrrolidin-2-one hexafluoropropanesulfonate] |  | 21.9 |  |  |  | 645 | 423
4 | CCC[N+](C)(C)CCN1C(=O)CCC1C.O=S(=O)([N-]S(=O)(=O)C(F)(F)F)C(F)(F)F (stereo not shown) [Example 6, 1-(N,N,N-dimethylpropylaminoethyl)-5-methyl pyrrolidone-2-one bis(trifluoromethane)sulfonamide] |  | 100 |  |  |  |  | 387
5 | COCC[N+](C)(C)CCN1C(=O)CCC1C.O=S(=O)([N-]S(=O)(=O)C(F)(F)F)C(F)(F)F (stereo not shown) [Example 7, 1-(N,N,N-dimethyl(methylethoxy)aminoethyl)-5-methyl pyrrolidone-2-one bis(trifluoromethane)sulfonamide] |  | 100 |  |  |  | 643 | 389
6 | CC1CCC(=O)N1CC[N+](C)(C)CCO.O=S(=O)([N-]S(=O)(=O)C(F)(F)F)C(F)(F)F (stereo not shown) [Example 8, 1-(N,N,N-dimethyl(hydroxyethyl)aminoethyl)-5-methyl pyrrolidone-2-one bis(trifluoromethane)sulfonamide] |  | 89.3 |  |  |  |  | 417
